Tests used:
Erk1/2 = experiment: Western blot of Erk1/2 phosphorylation in LnCAP cells; format: cell-based, human; conditions: for DHT-induced Erk1/2 phosphorylation: inhibitor 30 min (100 nM flutamide, 20 μM AG1478, 5 μM Erlotinib, 20 μM PP2, 20 μM galardin) before 25 nM DHT 30 min
Procedure: Thereafter, cells were treated with vehicle (0.1% DMSO) or inhibitors Galardin, PP2, AG1478 (Calbiochem), flutamide, or erlotinib (Sigma) for 30 minutes before stimulation with 0.1% ethanol (vehicle) or 25 nM DHT for 30 minutes.
PC3 or LnCAP cells were treated with non-targeting siRNA pool (ThermoFisher Scientific) or paxillin-specific siRNA according to manufacturer's instructions. Two sets of human paxillin siRNAs were used: 1) human paxillin siRNA (Santa Cruz Biotechnology) containing three target-specific 20-25 nucleotide siRNAs or 2) human paxillin siRNA ON-TARGET plus SMARTpoo1 (ThemoFisher Scientific) containing four siRNAs targeting the paxillin mRNA. […] For experiments involving constitutively active (“CA”) Raf (William Walker, University of Pittsburgh) or MEK (Melanie Cobb, University of Texas Southwestern Medical Center), cells were co-transfected with paxillin or nonspecific siRNAs and cDNAs encoding caRaf or caMEK.

MEK = conditions: MLTC cells; 20 μM; cited from earlier work
paxillin [1] = experiment: Western blot of paxillin phosphorylation in LnCAP cells; format: cell-based, human; conditions: for DHT-induced paxillin phosphorylation at all four sites (tyrosines 31/118, serines 83/126): AG1478 or 20 μM PP2 before DHT
Procedure: (§1) LnCAP and PC3 cell lines were obtained from ATCC and cultured in RPMI 1640 medium (Invitrogen) containing 10% FBS and 1% penicillin-streptomycin. For experiments involving pharmacological inhibitors, cells were treated overnight with serum-free, phenol red-free RPMI 1640 media. Thereafter, cells were treated with vehicle (0.1% DMSO) or inhibitors Galardin, PP2, AG1478 (Calbiochem), flutamide, or erlotinib (Sigma) for 30 minutes before stimulation with 0.1% ethanol (vehicle) or 25 nM DHT for 30 minutes.
(§2) Western blots were performed as described (Evaul and Hammes, “Cross-Talk Between G Protein-Coupled and Epidermal Growth Factor Receptors Regulates Gonadotropin-Mediated Steroidogenesis in Leydig Cells,” J. Biol. Chem. 283(41):27525-27533 (2008), which is hereby incorporated by reference in its entirety). Primary antibodies were: paxillin, paxillinphospho-Tyr118, paxillin-phospho-Tyr31, Akt1/2/3, Akt1/2/3 phospho-Ser473, EGFR at 1:1000 dilution, and EGFR phospho-Tyr845 (1:500) (Santa Cruz Biotechnology); paxillin phospho-Ser126 (Invitrogen); paxillin phospho-Ser83 (ECM Biosciences); p44/42-Erk1/2, phospho-p44/42-Erk1/2 (Thr202/[…]), phospho-Ser217/221-MEK1/2, src, src-phospho-Tyr416 (Cell Signaling Technology) at 1:1000 dilutions and f3-actin (1:5000, Millipore).

Src = experiment: Western blot of Src phosphorylation in LnCAP cells; format: cell-based, human; conditions: 20 μM, 30 min before 25 nM DHT
Procedure: as §1, §2

PSA mRNA = PSA mRNA expression by real time PCR in LnCAP cells; format: cell-based, human; conditions: 20 μM U0126 or 20 μM AG1478 30 minutes before 25 nM DHT 24 hours
Procedure: RNA was isolated with the RNeasy mini kit (Qiagen) according to manufacturer's instructions. Levels of Kallikrein-related peptidase-3 (KLK3, or prostate-specific antigen (“PSA”)), paxillin, cyclin D1, and GAPDH expression were analyzed by the A/A-Ct method using Taqman gene expression assay primers (assay ID# Hs99999905_ml-GAPDH, Hs02576345_ml-KLK3, Hs99999004_ml-CCND1, and Hs01104424-ml-PXN; Applied Biosystems) on an ABI StepOne plus real-time PCR machine.

paxillin [2] = experiment: Subcellular localization of paxillin and phosphoserine-paxillin; format: cell-based; conditions: upon stimulation with DHT or EGF
From the text: The subcellular localization of paxillin versus phosphoserine-paxillin was first examined. As expected, paxillin is localized primarily in the cytoplasm in resting cells (FIG. 14, unstimulated). […] This confirms the model of FIG. 9C, which posits that phosphoserine-paxillin regulates nuclear processes. Therefore, a common AR-mediated transcriptional event was examined: expression of PSA mRNA. […] Furthermore, knockdown of endogenous paxillin in LnCAP cells prevented DHT-induced induction of PSA mRNA expression and promoter activity (FIGS. 9A and 15). […] Together, these studies further emphasize that paxillin regulates cross-talk between extranuclear kinase signaling and intranuclear transcription.

androgen receptors (AR) = experiment: Androgen receptor nuclear localization by fluorescence imaging; format: cell-based
Procedure: Cellular staining was carried out using fluorescence imaging for androgen receptors (AR) and DAPI. […] Furthermore, knockdown and rescue experiments confirm that phosphoserine-paxillin is the moiety regulating AR translocation to the nucleus, since the mutant lacking the Erk serine targets (S A) cannot sustain AR nuclear localization (FIG. 17F versus 17E). Importantly, leptomycin B, which prevents nuclear export through CRM, rescues the nuclear localization of the AR in paxillin-knockdown cells stimulated with DHT (FIG. 17D). […] The latter allows the AR to remain in the nucleus, bind DNA, and promote transcription.

LnCAP cells = experiment: MTT cell proliferation assay, LnCAP cells; format: cell-based, human
Procedure: (§3) PC3 or LnCAP cells were treated with non-targeting siRNA pool (ThermoFisher Scientific) or paxillin-specific siRNA according to manufacturer's instructions. Two sets of human paxillin siRNAs were used: 1) human paxillin siRNA (Santa Cruz Biotechnology) containing three target-specific 20-25 nucleotide siRNAs or 2) human paxillin siRNA ON-TARGET plus SMARTpoo1 (ThemoFisher Scientific) containing four siRNAs targeting the paxillin mRNA. The latter was used for all experiments described in the accompanying Examples, although results were similar with both pools. For experiments involving constitutively active (“CA”) Raf (William Walker, University of Pittsburgh) or MEK (Melanie Cobb, University of Texas Southwestern Medical Center), cells were co-transfected with paxillin or nonspecific siRNAs and cDNAs encoding caRaf or caMEK. After 72 hours, cells were treated overnight with serum-free, phenol red-free RPMI 1640 media and stimulated with 0.1% ethanol/DMSO (vehicle), 25 nM DHT (Steraloids), 20 ng/ml EGF (BD Biosciences), or 100 nM PMA (Sigma) for the times indicated for Western blots or 24 hours for MTT assays.
(§4) MTT assays were performed using a colorimetric assay cell proliferation kit (Roche Applied Science) according to the manufacturer's instructions.

EGFR = EGFR transactivation assay in A431 cells; format: cell-based
Procedure: A431 cells were used to detect DHT-mediated release of EGFR ligands from LnCAP cells. A431 cells (ATCC) were cultured in DMEM/F-12 (1:1) medium (Invitrogen) containing 10% FBS and 1% penicillin-streptomycin, serum-starved overnight, and then stimulated with medium from DHT−, DHT+Galardin−, or vehicle (0.1% ethanol)-treated LnCAP cells for 60 minutes. As controls, A431 cells were stimulated with DHT or media alone. Thereafter, A431 cells were isolated for Western blot analysis to detect phosphorylated and total EGFR.

paxillin [3] = experiment: Western blot of paxillin phosphorylation in PC3 cells; format: cell-based, human
Procedure: FIGS. 8A-D illustrate that PMA-mediated Erk1/2 activation is paxillin-independent, but PMA-mediated proliferation still requires serine phosphorylation of paxillin. In FIG. 8A, paxillin (Pax) or non-targeting (Nsp) siRNA-treated LnCAP cells were serum-starved and treated with PMA (100 nM) or EGF (20 ng/ml) for 30 minutes. Western blots were performed for paxillin and total and phosphorylated Erk1/2. In FIG. 8B, serum-starved PC3 cells were pretreated with 0.1% DMSO or 20 μM U0126 ([…]) for 30 minutes before stimulation with PMA (100 nM) or EGF (20 ng/ml) for another 30 minutes. Thereafter, levels of paxillin and phosphorylated paxillin at tyrosine-118 (Pax p-Y118) and serine-126 (Pax p-S126) were detected by Western blot. In FIG. 8C, cell proliferation (MTT assay) of PC3 cells treated (24 hours) with 0.1% DMSO (M) or 100 nM PMA in the presence or absence of 20 μM U0126. In FIG. 8D, PC3 cells were initially transfected with Paxillin (Pax) or non-targeting (Nsp) siRNA. After 96 hours, media were removed, and cells were then either mock-transfected or transfected with wild-type paxillin (left panel) or paxillin mutated at tyrosines 31/118 (Y31A/Y118A, middle panel) or serines 83/126/130 (S83A/S126A/S130A, right panel). […] Cell proliferation was detected by MTT. […]

PC3 cells = experiment: MTT cell proliferation assay, PC3 cells; format: cell-based, human; conditions: 100 nM PMA 24 hours, 20 μM U0126
Procedure: as §3, §4

[4] = target: prostate-specific membrane antigen (PSMA) (Homo sapiens, UniProt Q04609); conditions: cited from earlier work
Sequence of prostate-specific membrane antigen (PSMA) (Q04609 whole entry): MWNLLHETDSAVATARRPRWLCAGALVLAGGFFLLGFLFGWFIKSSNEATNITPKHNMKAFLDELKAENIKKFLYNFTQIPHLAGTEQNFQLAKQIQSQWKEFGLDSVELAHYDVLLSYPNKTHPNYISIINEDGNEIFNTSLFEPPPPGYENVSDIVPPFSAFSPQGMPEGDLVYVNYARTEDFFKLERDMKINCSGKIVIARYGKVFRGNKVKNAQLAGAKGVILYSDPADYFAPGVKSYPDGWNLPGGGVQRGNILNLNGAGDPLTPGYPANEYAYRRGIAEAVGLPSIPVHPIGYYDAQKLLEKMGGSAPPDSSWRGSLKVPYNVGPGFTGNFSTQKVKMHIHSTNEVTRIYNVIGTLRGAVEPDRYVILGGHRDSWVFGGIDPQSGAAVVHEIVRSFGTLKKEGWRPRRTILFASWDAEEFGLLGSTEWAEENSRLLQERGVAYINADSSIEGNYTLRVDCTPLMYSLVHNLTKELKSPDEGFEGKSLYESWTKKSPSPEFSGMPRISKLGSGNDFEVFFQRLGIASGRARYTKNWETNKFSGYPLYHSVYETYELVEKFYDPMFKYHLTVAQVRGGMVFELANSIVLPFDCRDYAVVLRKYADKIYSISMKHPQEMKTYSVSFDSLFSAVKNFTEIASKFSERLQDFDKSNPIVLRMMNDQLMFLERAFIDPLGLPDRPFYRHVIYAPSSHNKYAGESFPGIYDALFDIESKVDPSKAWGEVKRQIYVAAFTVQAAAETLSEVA

In the case of `COc1cc2ncnc(Nc3cccc(Cl)c3)c2cc1OC` [AG1478], the “EGF-induced Erk activation” value (Erk1/2; 20 μM AG1478, EGF 20 ng/ml) is reported as “specifically blocks”, the “FGF-induced Erk activation” value (Erk1/2; 20 μM AG1478, FGF 25 ng/ml) is reported as “does not block” and the “DHT-induced Erk1/2 phosphorylation” value (Erk1/2) is reported as “blocked”. For the same molecule, the “EGF but not FGF-induced MEK activation” value (MEK) was “specifically blocks”, the “DHT-induced paxillin phosphorylation at all four sites (tyrosines 31/118, serines 83/126)” value (paxillin [1]) was “abrogated” and the “DHT-induced Src phosphorylation” value (Src) was “blocked”. For the same molecule, the “DHT-induced expression of PSA mRNA” value (PSA mRNA) was “abrogated”.

For `C[C@]12CCC(=O)C[C@@H]1CC[C@@H]1[C@@H]2CC[C@]2(C)[C@@H](O)CC[C@@H]12` [DHT], the “Erk1/2 activation from 15 to 120 minutes” value (Erk1/2; 25 nM DHT or 20 ng/ml EGF) was “induced”, the Erk1/2 phosphorylation/activation (Erk1/2; 25 nM DHT, 30 minutes) was “significantly induced” and the “phosphorylation of paxillin at tyrosines 31/118 and serines 83/126” value (paxillin [1]; 25 nM DHT, 30 minutes) was “triggered”. For the same molecule, the “localization of total paxillin (T-Pax)” value (paxillin [2]) was “relocalizes the nucleus”, the “share of phosphoserine-paxillin (PS-PAX) in the nucleus” value (paxillin [2]) was “nearly all” and the AR nuclear localization (androgen receptors (AR); DHT-treatment) was “promotes”. The “LnCAP proliferation by both MTT and BrdU incorporation” value (LnCAP cells; 0.1-100 nM DHT) was “promoted”, the “cell proliferation (MTT)” value (LnCAP cells; LnCAP, DHT 25 nM or EGF 20 ng/ml, 24 hours) was “significantly stimulated” and the “EGF receptor activation in A431 cells, direct stimulation” value (EGFR; DHT alone (25 nM), no LnCAP cells) was “did not promote”. For the same molecule, the “EGF receptor phosphorylation in A431 cells by medium from treated LnCAP cells” value (EGFR; medium from 25 nM DHT-treated LnCAP cells, 60 minutes) was “increased”.

With `C#Cc1cccc(Nc2ncnc3cc(OCCOC)c(OCCOC)cc23)c1` [Erlotinib] the “DHT-induced Erk1/2 phosphorylation” value (Erk1/2) was “blocked”.

With `CCCCCCCCCCCCCC(=O)O[C@@H]1[C@@H](C)[C@@]2(O)[C@@H](C=C(CO)C[C@]3(O)C(=O)C(C)=C[C@@H]23)[C@@H]2C(C)(C)[C@]12OC(C)=O` [PMA] the “paxillin phosphorylation (tyrosine and serine)” value (paxillin [3]; PMA 100 nM or EGF 20 ng/ml, 30 minutes) was “only promoted serine phosphorylation”.

For `CC(C)(C)n1nc(-c2ccc(Cl)cc2)c2c(N)ncnc21` [PP2], the “DHT-induced Erk1/2 phosphorylation” value (Erk1/2) was “blocked” and the “DHT-induced paxillin phosphorylation at all four sites (tyrosines 31/118, serines 83/126)” value (paxillin [1]) was “abrogated”.

In the case of `N#CC(=C(/N)Sc1ccccc1N)/C(C#N)=C(\N)Sc1ccccc1N` [U0126], the “PMA-induced proliferation of PC3 cells” value (PC3 cells) is reported as “blocked”, the “DHT-induced phosphorylation of paxillin at serines 83/126” value (paxillin [1]; 20 μM U0126) is reported as “blocked” and the “PMA-induced serine phosphorylation of paxillin” value (paxillin [3]; 20 μM U0126) is reported as “blocked”. For the same molecule, the “DHT-induced expression of PSA mRNA” value (PSA mRNA) was “abrogated”.

In the case of `CNC(=O)[C@H](Cc1c[nH]c2ccccc12)NC(=O)[C@@H](CC(=O)NO)CC(C)C` [galardin], the “DHT-induced Erk1/2 phosphorylation” value (Erk1/2) is reported as “block” and the “ability of medium from DHT-treated LnCAP cells to activate EGF receptor signaling in A431 cells” value (EGFR; 20 μM galardin added to DHT (25 nM)-treated LnCAP cells) is reported as “blocked”.

With `CCC(=C/[C@H](C)C/C=C/C(C)=C/[C@@H](C)C(=O)[C@@H](C)[C@H](O)[C@@H](C)C/C(C)=C/C(=O)O)/C=C/[C@@H]1OC(=O)C=C[C@@H]1C` [leptomycin B] the “nuclear localization of the AR in paxillin-knockdown cells stimulated with DHT” value (androgen receptors (AR); leptomycin B prevents nuclear export through CRM) was “rescues”.

In the case of “Aptamer A10-3: RNA aptamer which binds specifically to PSMA (GGGAGGACGAUGCGGAUCAGCCAUGUUUACGUCACUCCUUGUCAAUCCUCAUCGGC; listed as RNA, chemistry not given here)”, the “binding to PSMA” value [4] is given as “binds specifically”.

B1: Aptamer A10: RNA aptamer which binds specifically to PSMA (nucleic acid)
chain: GGGAGGACGAUGCGGAUCAGCCAUGUUUACGUCACUCCUUGUCAAUCCUCAUCGGCAGACGACUCGCCCGA
modifications: listed as RNA, chemistry not given here
In the case of B1, the “binding to PSMA” value [4] is given as “binds specifically”.

B2: Aptamer A9: RNA aptamer which binds specifically to PSMA (nucleic acid)
chain: GGGAGGACGAUGCGGACCGAAAAAGACCUGACUUCUAUACUAAGUCUACGUUCCCAGACGACUCGCCCGA
modifications: listed as RNA, chemistry not given here
For B2, the “binding to PSMA” value [4] is listed as “binds specifically”.

From patent US20130136753A1, “PAXILLIN AS A THERAPEUTIC OR DIAGNOSTIC MARKER FOR CANCER” (UNIVERSITY OF ROCHESTER, priority 2010, published 2013)
